Reference: PMC2655144 (Biochemistry, 2008)
Several values for one entry are separate records, joined by “and”; a condition that tells them apart may be missing. Equal values may be shown once. Read-outs that look alike come from different tables or passages of the source.

Key:
[1] = tested on: AChE; conditions: cited from earlier work; for i2 for thioflavin T with A-site ligand: ternary complex with thioflavin T
[2] = target: carbamoylated AChE (EC) (Homo sapiens, UniProt P22303); assay: Carbachol binding to carbamoylated AChE
[3] = target: recombinant human AChE (Homo sapiens, UniProt P22303); type: biochemical; conditions: for k12 + k21: 15.6 μM thioflavin T; for k122: two-component fit, minor component E2
[4] = target: free AChE (E), recombinant human AChE (Homo sapiens, UniProt P22303); conditions: cited from earlier work
[5] = maximum parameter range fit, iEC fixed at 1e-6
[6] = maximum parameter range fit, iECKECS fixed at 8 mM
[7] = maximum parameter range fit, i fixed at 1e-6
[8] = maximum parameter range fit, iKs fixed at 12 mM

carbamoylated AChE (EC), sequence (P22303 32-574 limits assumed): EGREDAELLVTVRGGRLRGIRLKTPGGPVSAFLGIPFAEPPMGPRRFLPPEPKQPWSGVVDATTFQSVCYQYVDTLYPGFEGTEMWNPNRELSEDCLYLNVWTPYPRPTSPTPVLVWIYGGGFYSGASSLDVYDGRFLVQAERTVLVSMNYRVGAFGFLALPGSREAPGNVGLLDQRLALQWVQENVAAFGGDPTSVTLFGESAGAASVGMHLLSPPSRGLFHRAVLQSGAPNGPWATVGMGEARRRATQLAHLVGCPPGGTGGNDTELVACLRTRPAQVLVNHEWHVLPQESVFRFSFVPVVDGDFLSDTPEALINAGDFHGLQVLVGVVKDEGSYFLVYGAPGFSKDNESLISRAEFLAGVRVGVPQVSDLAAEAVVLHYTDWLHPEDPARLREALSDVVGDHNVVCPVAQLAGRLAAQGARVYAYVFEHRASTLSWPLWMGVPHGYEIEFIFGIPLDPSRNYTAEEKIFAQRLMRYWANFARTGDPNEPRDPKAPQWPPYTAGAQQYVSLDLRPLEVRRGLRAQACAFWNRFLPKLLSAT
recombinant human AChE, sequence (P22303 32-614): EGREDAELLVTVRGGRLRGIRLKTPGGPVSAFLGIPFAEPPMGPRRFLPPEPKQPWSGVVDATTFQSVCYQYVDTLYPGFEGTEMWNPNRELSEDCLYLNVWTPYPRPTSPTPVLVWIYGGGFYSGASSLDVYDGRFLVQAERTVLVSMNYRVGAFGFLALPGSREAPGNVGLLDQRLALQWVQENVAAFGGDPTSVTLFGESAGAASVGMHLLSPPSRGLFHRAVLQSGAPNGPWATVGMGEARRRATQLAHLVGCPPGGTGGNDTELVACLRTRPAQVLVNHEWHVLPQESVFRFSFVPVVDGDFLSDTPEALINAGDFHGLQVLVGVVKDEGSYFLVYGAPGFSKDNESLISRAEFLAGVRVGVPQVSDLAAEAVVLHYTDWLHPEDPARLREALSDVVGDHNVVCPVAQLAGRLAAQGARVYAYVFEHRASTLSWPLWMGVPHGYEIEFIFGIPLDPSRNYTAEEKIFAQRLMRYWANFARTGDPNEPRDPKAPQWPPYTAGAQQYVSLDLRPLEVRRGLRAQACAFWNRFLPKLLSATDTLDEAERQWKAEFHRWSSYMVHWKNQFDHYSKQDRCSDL
free AChE (E), recombinant human AChE, sequence (P22303 32-614): as above

Question: With `CC(=O)Nc1cccc([N+](C)(C)C)c1` [ATMA, 3-(acetamido)-N,N,N-trimethylanilinium] as the compound, how does the “i2 for propidium with A-site ligand” value ([1]; ternary complex with propidium) read?
Answer: 9.5

Question: What about the “i2 for thioflavin T with A-site ligand” value [1] of the same compound?
Answer: 3.1

Question: For `C[N+](C)(C)CCOC(N)=O` [carbachol, carbamoylcholine chloride], which iEC [2] is on record?
Answer: 1.23

Question: What about the Kd ([2]; KECM+S, combined binding to A- and P-sites in EC, iEC2 fixed at 0.90) of the same compound?
Answer: 1700 ± 400 µM

Question: What about the Kd ([2]; KECM+S, maximum parameter range fit, iEC fixed at 1e-6) of the same compound?
Answer: 1660 µM

Question: And the Kd ([2]; KECM+S, maximum parameter range fit, iECKECS fixed at 8 mM)?
Answer: 1660 µM

Question: What about the Kd ([2]; KECM, A-site in EC, iEC2 fixed at 0.90) of the same compound?
Answer: 1800 ± 500 µM

Question: And the Kd ([2]; KECM, maximum parameter range fit, iEC fixed at 1e-6)?
Answer: 1660 µM

Question: What about the fECSL/fESL ([2]; for the three sets in Tables 1 and 2) of the same compound?
Answer: 1.14 ± 0.03

Question: And the “increase of fluorescence of bound thioflavin T when carbachol bound to the A-site in ternary complex with EC” value ([2]; from fECL/fECSL)?
Answer: about 20%

Question: What about the fECL/fECSL ([2]; iEC2 fixed at 0.90) of the same compound?
Answer: 0.83 and 0.83 ± 0.01

Question: And the Kd ([2]; iECKECS, P-site in EC, iEC2 fixed at 0.90)?
Answer: 32000 ± 2000 µM

Question: And the Kd ([2]; iECKECS, maximum parameter range fit, iEC fixed at 1e-6)?
Answer: 34000 µM

Question: And the fECL/fECSL [2, 5]?
Answer: 0.83

Question: And the iEC2 [2, 5]?
Answer: 0.96

Question: And the fECL/fECSL [2, 6]?
Answer: 0.83

Question: And the iEC [2, 6]?
Answer: 3.5

Question: And the iEC2 [2, 6]?
Answer: 0.21

Question: What about the “k12 + k21” value ([3]; 1.67 mM carbachol, one-component fit (eq 6)) of the same compound?
Answer: 5.94 ± 0.02 min⁻¹

Question: And the “k12 + k21” value ([3]; 1.67 mM carbachol, two-component fit (eq A2))?
Answer: 6.53 ± 0.02 min⁻¹

Question: And the k122 ([3]; 1.67 mM carbachol)?
Answer: 0.68 ± 0.04

Question: And the “k12 + k21” value ([3]; 60 mM carbachol, one-component fit (eq 6))?
Answer: 23.8 ± 0.3 min⁻¹

Question: What about the “k12 + k21” value ([3]; 60 mM carbachol, two-component fit (eq A2)) of the same compound?
Answer: 27.0 ± 0.4 min⁻¹

Question: And the k122 ([3]; 60 mM carbachol)?
Answer: 4.3 ± 0.3

Question: What about the i [4] of the same compound?
Answer: 0.92

Question: And the fEL/fESL [4, 7]?
Answer: 1.50

Question: And the i2 [4, 7]?
Answer: 1.08

Question: And the fEL/fESL [4, 8]?
Answer: 1.50

Question: And the i [4, 8]?
Answer: 1.59

Question: What about the i2 [4, 8] of the same compound?
Answer: 0.42

Question: And the fEL/fESL ([4]; one-site fit, (iKS)^−1 fixed at 0)?
Answer: 1.85

Question: What about the Kd ([4]; read-out: iKs, P-site in E, i2 fixed at 0.90) of the same compound?
Answer: 26000 ± 4000 µM

Question: Which “i2 for thioflavin T with A-site ligand” value [1] does the source give for `CC[N+](C)(C)c1cccc(O)c1` [edrophonium] here?
Answer: 1.12
